Laboratory results from patent US12590091B2, “1H-pyrrolo[3,2-C]pyridine and 1H-pyrrolo[2,3-C]pyridine derivatives as TLR9 inhibitors for the treatment of fibrosis” (BRISTOL-MYERS SQUIBB COMPANY, priority 2020, dated 2026).

Key:
human TLR8 = biological target: T1, human TLR8 (Homo sapiens, UniProt Q9NR97); assay: TLR8 inhibition reporter assay (HEK-Blue cells, SEAP reporter); format: cell-based; details: HEK-Blue cells overexpressing human TLR8, stimulated with R848 15.9 μM, 22 hour incubation
T1 construct: host or cells: HEK-Blue cells
T1 sequence (Q9NR97 27-1041): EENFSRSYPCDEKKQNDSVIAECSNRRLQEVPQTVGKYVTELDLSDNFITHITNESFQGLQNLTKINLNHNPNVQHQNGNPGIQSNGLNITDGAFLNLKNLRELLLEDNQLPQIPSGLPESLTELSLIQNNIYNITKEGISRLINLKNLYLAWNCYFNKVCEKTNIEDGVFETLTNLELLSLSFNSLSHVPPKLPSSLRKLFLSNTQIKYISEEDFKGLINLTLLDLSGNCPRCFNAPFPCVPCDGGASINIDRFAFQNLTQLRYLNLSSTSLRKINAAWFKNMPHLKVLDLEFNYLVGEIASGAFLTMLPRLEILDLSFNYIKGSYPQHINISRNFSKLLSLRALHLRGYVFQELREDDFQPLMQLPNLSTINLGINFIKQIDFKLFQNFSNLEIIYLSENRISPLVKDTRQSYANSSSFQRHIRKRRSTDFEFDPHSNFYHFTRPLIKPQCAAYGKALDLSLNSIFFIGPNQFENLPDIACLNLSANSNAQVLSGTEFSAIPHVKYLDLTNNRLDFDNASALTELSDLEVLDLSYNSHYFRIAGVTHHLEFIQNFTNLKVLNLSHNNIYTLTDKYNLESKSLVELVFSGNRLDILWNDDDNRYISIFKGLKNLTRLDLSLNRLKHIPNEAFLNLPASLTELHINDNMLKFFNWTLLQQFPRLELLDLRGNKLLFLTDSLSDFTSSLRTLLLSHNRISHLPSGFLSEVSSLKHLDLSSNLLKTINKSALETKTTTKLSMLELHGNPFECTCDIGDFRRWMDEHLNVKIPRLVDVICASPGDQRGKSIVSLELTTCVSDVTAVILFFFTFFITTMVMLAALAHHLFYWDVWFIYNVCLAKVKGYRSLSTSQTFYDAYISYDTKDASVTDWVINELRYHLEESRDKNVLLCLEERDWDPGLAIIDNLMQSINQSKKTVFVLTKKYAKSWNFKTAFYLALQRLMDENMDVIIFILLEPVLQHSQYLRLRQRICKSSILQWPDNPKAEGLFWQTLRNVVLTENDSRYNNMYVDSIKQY
Procedure: TLR7/8/9 Inhibition Reporter Assays
HEK-Blue™-cells (Invivogen) overexpressing human TLR7, TLR8 or TLR9 receptors were used for screening inhibitors of these receptors using an inducible SEAP (secreted embryonic alkaline phosphatase) reporter gene under the control of the IFN-β minimal promoter fused to five NF-κB and AP-1-binding sites. Briefly, cells are seeded into Greiner 384 well plates (15000 cells per well for TLR7, 20,000 for TLR8 and 25,000 for TLR9) and then treated with test compounds in DMSO to yield a final dose response concentration range of 0.05 nM-50 μM. After a 30 minute compound pre-treatment at room temperature, the cells are then stimulated with a TLR7 ligand (gardiquimod at a final concentration of 7.5 μM), TLR8 ligand (R848 at a final concentration of 15.9 μM) or TLR9 ligand (ODN2006 at a final concentration of 5 nM) to activate NF-κB and AP-1 which induce the production of SEAP. After a 22 hour incubation at 37° C., 5% CO2, SEAP levels are determined with the addition of HEK-Blue™ Detection reagent (Invivogen), a cell culture medium that allows for detection of SEAP, according to manufacturer's specifications. The percent inhibition is determined as the % reduction in the HEK-Blue signal present in wells treated with agonist plus DMSO alone compared to wells treated with a known inhibitor.

human TLR9 = biological target: T2, human TLR9 (Homo sapiens, UniProt Q9NR96); assay: TLR9 inhibition reporter assay (HEK-Blue cells, SEAP reporter); format: cell-based; details: HEK-Blue cells overexpressing human TLR9, stimulated with ODN2006 5 nM, 22 hour incubation
T2 construct: host or cells: HEK-Blue cells
T2 sequence (Q9NR96 26-1032): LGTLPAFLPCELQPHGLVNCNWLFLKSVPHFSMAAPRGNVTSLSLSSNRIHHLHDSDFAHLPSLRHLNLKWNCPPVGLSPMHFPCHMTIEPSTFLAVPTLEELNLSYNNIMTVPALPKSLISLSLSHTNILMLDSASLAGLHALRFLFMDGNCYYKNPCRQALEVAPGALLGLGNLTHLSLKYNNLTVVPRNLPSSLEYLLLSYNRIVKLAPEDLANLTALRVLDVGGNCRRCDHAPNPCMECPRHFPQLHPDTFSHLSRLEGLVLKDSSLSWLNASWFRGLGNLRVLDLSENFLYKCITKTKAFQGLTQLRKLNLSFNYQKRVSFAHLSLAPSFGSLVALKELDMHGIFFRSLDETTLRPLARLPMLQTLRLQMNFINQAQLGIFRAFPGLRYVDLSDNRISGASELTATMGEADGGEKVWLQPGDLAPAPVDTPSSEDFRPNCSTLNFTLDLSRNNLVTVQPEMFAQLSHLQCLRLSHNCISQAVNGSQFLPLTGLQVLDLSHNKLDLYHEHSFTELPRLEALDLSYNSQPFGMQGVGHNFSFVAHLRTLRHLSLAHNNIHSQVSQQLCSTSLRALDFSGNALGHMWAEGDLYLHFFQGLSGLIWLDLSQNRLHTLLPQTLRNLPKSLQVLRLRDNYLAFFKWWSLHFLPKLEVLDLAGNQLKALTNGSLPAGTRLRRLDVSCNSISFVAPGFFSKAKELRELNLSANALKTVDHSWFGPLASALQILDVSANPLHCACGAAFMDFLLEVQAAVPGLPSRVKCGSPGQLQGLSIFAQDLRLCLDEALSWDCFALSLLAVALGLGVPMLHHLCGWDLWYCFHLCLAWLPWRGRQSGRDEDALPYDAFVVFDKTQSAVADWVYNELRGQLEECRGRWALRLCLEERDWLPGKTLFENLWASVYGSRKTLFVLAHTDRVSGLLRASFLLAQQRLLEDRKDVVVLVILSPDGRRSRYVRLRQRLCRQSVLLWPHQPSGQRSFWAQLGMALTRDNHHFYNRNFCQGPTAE
Procedure, shortened: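 Compound dose-response (0.05 nM–50 μM final) on agonist-stimulated human TLR9 HEK-Blue cells, 25,000/well, incubated 22 h at 37 °C, 5% CO2. Readout was secreted alkaline phosphatase under an IFN-β minimal promoter with NF-κB/AP-1 sites; inhibition expressed relative to DMSO and reference-inhibitor controls.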

Compound | IC50 (human TLR8) [µM] | IC50 (human TLR9) [µM]
Cc1nc(-c2ccc(C3CCN(CCCO)CC3)cc2)cc2c1cc(-c1ccc(S(C)(=O)=O)cc1)n2C [Example 41, 3-(4-(4-(1,4-Dimethyl-2-(4-(methylsulfonyl)phenyl)-1H-pyrrolo[3,2-c]pyridin-6-yl)phenyl)piperidin-1-yl)propan-1-ol] | > 16.7 | 0.236
Cc1nc(-c2ccc(N3CCN(CCCO)CC3)cc2)cc2c1cc(-c1ccc(S(=O)(=O)C3CC3)cc1)n2C [Example 47, 3-(4-(4-(2-(4-(cyclopropylsulfonyl)phenyl)-1,4-dimethyl-1H-pyrrolo[3,2-c]pyridin-6-yl)phenyl)piperazin-1-yl)propan-1-ol] | > 25 | 0.077
COCCN1CCN(c2ccc(-c3cc4c(cc(-c5ccc(S(=O)(=O)C6CC6)cc5)n4C)c(C)n3)cc2)CC1 [Example 48, 2-(4-(cyclopropylsulfonyl)phenyl)-6-(4-(4-(2-methoxyethyl)piperazin-1-yl)phenyl)-1,4-dimethyl-1H-pyrrolo[3,2-c]pyridine] | > 25 | 0.385
CC(C)CN1CCN(c2ccc(-c3cc4c(cn3)cc(-c3ccc(S(C)(=O)=O)cc3)n4C)cc2)CC1 [Example 53, 6-(4-(4-isobutylpiperazin-1-yl)phenyl)-1-methyl-2-(4-(methylsulfonyl)phenyl)-1H-pyrrolo[3,2-c]pyridine] | > 50 | 0.021
CC(C)N1CCN(c2ccc(-c3cc4c(cn3)cc(-c3ccc(S(C)(=O)=O)cc3)n4C)cc2)CC1 [Example 54, 6-(4-(4-isopropylpiperazin-1-yl)phenyl)-1-methyl-2-(4-(methylsulfonyl)phenyl)-1H-pyrrolo[3,2-c]pyridine] | > 50 | 0.042
Cc1nc(-c2ccc(N3CCN(CCCO)CC3)c(F)c2F)cc2c1cc(-c1ccc(S(C)(=O)=O)cc1)n2C [Example 55, 3-(4-(4-(1,4-dimethyl-2-(4-(methylsulfonyl)phenyl)-1H-pyrrolo[3,2-c]pyridin-6-yl)-2,3-difluorophenyl)piperazin-1-yl)propan-1-ol] | > 50 | 2.81
Cc1nc(-c2ccc(CN3CCN(CCCO)CC3)cc2)cc2c1cc(-c1ccc(S(C)(=O)=O)cc1)n2C [Example 58, 3-(4-(4-(1,4-dimethyl-2-(4-(methylsulfonyl)phenyl)-1H-pyrrolo[3,2-c]pyridin-6-yl)benzyl)piperazin-1-yl)propan-1-ol] | 17.8 | 0.107
Cc1nc(-c2ccc(CN3CCC(C)(O)CC3)cc2)cc2c1cc(-c1ccc(S(C)(=O)=O)cc1)n2C [Example 59, 1-(4-(1,4-dimethyl-2-(4-(methylsulfonyl)phenyl)-1H-pyrrolo[3,2-c]pyridin-6-yl)benzyl)-4-methylpiperidin-4-ol] | 17.2 | 0.772
Cc1nc(-c2ccc(N3CCN(CCO)CC3)c(F)c2)cc2c1cc(-c1ccc(S(C)(=O)=O)cc1)n2C [Example 69, 2-(4-(4-(1,4-dimethyl-2-(4-(methylsulfonyl)phenyl)-1H-pyrrolo[3,2-c]pyridin-6-yl)-2-fluorophenyl)piperazin-1-yl)ethan-1-ol] | > 25 | 0.078
Cc1nc(-c2ccc(N3CCN(C4CCOC4)CC3)c(F)c2)cc2c1cc(-c1ccc(S(C)(=O)=O)cc1)n2C (centres unmarked) [Example 70, 6-(3-fluoro-4-(4-(tetrahydrofuran-3-yl)piperazin-1-yl)phenyl)-1,4-dimethyl-2-(4-(methylsulfonyl)phenyl)-1H-pyrrolo[3,2-c]pyridine] | > 25 | 0.26

These reach a lower IC50 (human TLR8). Values come first.

IC50 (human TLR8) [µM] | IC50 (human TLR9) [µM] | Compound
2.7 | 0.079 | Cc1nc(-c2cc(F)c(N3CCNCC3)cc2F)cc2c1cc(-c1ccc(S(C)(=O)=O)cc1)n2C [Example 43, 6-(2,5-Difluoro-4-(piperazin-1-yl)phenyl)-1,4-dimethyl-2-(4-(methylsulfonyl)phenyl)-1H-pyrrolo[3,2-c]pyridine]
1.2 | 0.096 | Cc1nc(-c2ccc(CN3CCN(CC(C)(C)O)CC3)cc2)cc2c1cc(-c1ccc(S(C)(=O)=O)cc1)n2C [Example 44, 1-(4-(4-(1,4-Dimethyl-2-(4-(methylsulfonyl)phenyl)-1H-pyrrolo[3,2-c]pyridin-6-yl)benzyl)piperazin-1-yl)-2-methylpropan-2-ol]
13.2 | 0.27 | Cc1nc(-c2cc(F)c(N3CCN(CCCO)CC3)cc2F)cc2c1cc(-c1ccc(S(C)(=O)=O)cc1)n2C [Example 56, 3-(4-(4-(1,4-dimethyl-2-(4-(methylsulfonyl)phenyl)-1H-pyrrolo[3,2-c]pyridin-6-yl)-2,5-difluorophenyl)piperazin-1-yl)propan-1-ol]
7.5 | 0.046 | Cc1nc(-c2ccc(CN3CCN(CC(C)C)CC3)cc2)cc2c1cc(-c1ccc(S(C)(=O)=O)cc1)n2C [Example 57, 6-(4-((4-isobutylpiperazin-1-yl)methyl)phenyl)-1,4-dimethyl-2-(4-(methylsulfonyl)phenyl)-1H-pyrrolo[3,2-c]pyridine]
4.6 | 0.064 | Cc1nc(-c2ccc(CN3CCN(CCC(C)(C)O)CC3)cc2)cc2c1cc(-c1ccc(S(C)(=O)=O)cc1)n2C [Example 60, 4-(4-(4-(1,4-dimethyl-2-(4-(methylsulfonyl)phenyl)-1H-pyrrolo[3,2-c]pyridin-6-yl)benzyl)piperazin-1-yl)-2-methylbutan-2-ol]
0.86 | 0.109 | Cc1nc(-c2ccc(CN3C[C@@H]4CC[C@H]3CN4CCC(C)(C)O)cc2)cc2c1cc(-c1ccc(S(C)(=O)=O)cc1)n2C [Example 61, 4-((1S,4S)-5-(4-(1,4-dimethyl-2-(4-(methylsulfonyl)phenyl)-1H-pyrrolo[3,2-c]pyridin-6-yl)benzyl)-2,5-diazabicyclo[2.2.2]octan-2-yl)-2-methylbutan-2-ol]
